Assay results: patent publication US10039753B2, “Imidazo[4,5-c]quinoline and imidazo[4,5-c][1,5]naphthyridine derivatives as LRRK2 inhibitors” (Pfizer Inc., priority 2015, dated 2018)

Assays:
[1] = target: mutant G2019S LRRK2 (Homo sapiens, UniProt Q5S007, G2019S); test: LRRK2 Assay, Format 1 (Lantha Screen), G2019S mutant
Experimental: LRRK2 kinase activity was measured using Lantha Screen technology from Invitrogen. GST-tagged truncated LRRK2 from Invitrogen (Cat # PV4874) was incubated with a fluorescein-labeled peptide substrate based upon ezrin/radixin/moesin (ERM), also known as LRRKtide (Invitrogen cat # PR8976A), in the presence of a dose response of compound. Upon completion, the assay was stopped and detected with a terbium labeled anti-phospho-ERM antibody (Invitrogen, cat # PR8975A). […] Aliquots (3.5 μL) of the 100% DMSO dose response were mixed with 46.5 μL water then 1 μL of this mixture was added to the 3 μL substrate mix in the 384-well plate. The kinase reaction was started with 3 μL of a working solution of LRRK2 enzyme at a concentration of 4 μg/mL. […] The reaction was allowed to progress at room temperature for two hours and then stopped with the addition of 7 μL of detection buffer (20 mM Tris pH 7.6, 0.01% NP-40, 0.02% NaN3, 6 mM EDTA with 2 nM terbium labeled anti-phospho-ERM).
All final concentrations of substrate ATP and enzyme were the same.

[2] = target: T1, GST-tagged truncated LRRK2 (Homo sapiens, UniProt Q5S007); test: LRRK2 Assay, Format 1 (Lantha Screen), WT; format: biochemical; conditions: Format 1, wild-type LRRK2; geometric mean of 2-4 determinations unless footnoted (a: ≥5 determinations; b: single determination; c: determined on trifluoroacetate salt)
T1 construct: GST-tagged truncated LRRK2 from Invitrogen (Cat # PV4874); GST; purchased Invitrogen PV4874
T1 sequence (Q5S007 970-2527 limits assumed): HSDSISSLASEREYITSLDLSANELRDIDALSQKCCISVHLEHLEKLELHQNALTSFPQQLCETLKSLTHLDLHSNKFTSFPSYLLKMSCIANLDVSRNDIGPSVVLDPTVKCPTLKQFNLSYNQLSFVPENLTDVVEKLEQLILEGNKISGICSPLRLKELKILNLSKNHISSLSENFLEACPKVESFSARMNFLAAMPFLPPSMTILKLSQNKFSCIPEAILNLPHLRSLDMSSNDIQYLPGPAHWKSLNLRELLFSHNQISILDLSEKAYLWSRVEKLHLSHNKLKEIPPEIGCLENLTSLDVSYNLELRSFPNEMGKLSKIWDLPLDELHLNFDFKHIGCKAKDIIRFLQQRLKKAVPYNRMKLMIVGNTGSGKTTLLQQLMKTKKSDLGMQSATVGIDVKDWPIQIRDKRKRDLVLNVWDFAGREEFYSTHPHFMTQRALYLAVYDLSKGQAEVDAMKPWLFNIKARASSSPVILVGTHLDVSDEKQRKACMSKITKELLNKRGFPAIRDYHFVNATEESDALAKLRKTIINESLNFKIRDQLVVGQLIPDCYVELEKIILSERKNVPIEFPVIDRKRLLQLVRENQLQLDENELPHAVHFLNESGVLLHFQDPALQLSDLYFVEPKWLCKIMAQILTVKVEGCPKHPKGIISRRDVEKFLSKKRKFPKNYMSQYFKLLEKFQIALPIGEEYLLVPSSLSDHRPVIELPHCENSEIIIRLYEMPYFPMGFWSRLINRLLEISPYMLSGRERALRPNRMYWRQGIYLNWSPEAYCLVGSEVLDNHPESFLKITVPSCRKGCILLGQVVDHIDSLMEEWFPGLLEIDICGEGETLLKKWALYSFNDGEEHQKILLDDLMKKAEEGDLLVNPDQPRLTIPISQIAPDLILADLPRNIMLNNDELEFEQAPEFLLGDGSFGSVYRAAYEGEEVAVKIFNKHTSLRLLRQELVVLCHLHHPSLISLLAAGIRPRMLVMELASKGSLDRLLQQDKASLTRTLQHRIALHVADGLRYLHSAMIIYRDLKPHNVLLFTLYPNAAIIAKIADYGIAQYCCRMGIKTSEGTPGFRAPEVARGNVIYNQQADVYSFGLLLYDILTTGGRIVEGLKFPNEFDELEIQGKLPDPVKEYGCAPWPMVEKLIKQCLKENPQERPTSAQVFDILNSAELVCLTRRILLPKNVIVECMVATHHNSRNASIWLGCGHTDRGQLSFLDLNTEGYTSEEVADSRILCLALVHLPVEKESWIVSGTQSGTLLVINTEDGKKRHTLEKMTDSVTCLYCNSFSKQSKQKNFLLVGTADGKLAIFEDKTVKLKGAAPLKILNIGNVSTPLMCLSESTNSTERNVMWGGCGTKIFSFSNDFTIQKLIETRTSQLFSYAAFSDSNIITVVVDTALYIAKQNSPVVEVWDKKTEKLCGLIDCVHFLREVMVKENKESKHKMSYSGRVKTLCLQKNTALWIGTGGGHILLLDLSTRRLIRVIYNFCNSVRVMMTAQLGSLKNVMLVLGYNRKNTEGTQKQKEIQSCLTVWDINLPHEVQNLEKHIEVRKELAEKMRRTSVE
How it was run: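 Kinase activity measured by TR-FRET: GST-tagged truncated LRRK2 (4 μg/mL working solution) reacted with fluorescein-labeled LRRKtide (ERM-based peptide) across a compound dose response for 2 h at room temperature. Reaction stopped with EDTA-containing detection buffer (20 mM Tris pH 7.6) holding 2 nM terbium anti-phospho-ERM antibody.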

[3] = tested on: kinase selectivity mini-panel; test: Kinase selectivity (mini-panel), further assay run, Table 5A; format: biochemical; conditions: 1 mM ATP, 1 μM drug concentration; for percent inhibition of ABL: kinase ABL; for percent inhibition of AKT: kinase AKT; for percent inhibition of AURA: kinase AURA; for percent inhibition of BTK: kinase BTK; for percent inhibition of CDK2_CyclinA: kinase CDK2_CyclinA; for percent inhibition of CHK1: kinase CHK1; for percent inhibition of CHK2: kinase CHK2; for percent inhibition of CKIIa′: kinase CKIIa′; for percent inhibition of CKIa: kinase CKIa; for percent inhibition of CaMKIIa: kinase CaMKIIa; for percent inhibition of EGFR: kinase EGFR; for percent inhibition of ERK2: kinase ERK2; for percent inhibition of EphA2: kinase EphA2; for percent inhibition of FGFR1: kinase FGFR1; for percent inhibition of GSK3b: kinase GSK3b; for percent inhibition of HGFR: kinase HGFR; for percent inhibition of IRAK4: kinase IRAK4; for percent inhibition of IRK: kinase IRK; for percent inhibition of JAK3: kinase JAK3; for percent inhibition of KDR (VEGF): kinase KDR (VEGF); for percent inhibition of LCK: kinase LCK; for percent inhibition of MARK1: kinase MARK1; for percent inhibition of MK2: kinase MK2; for percent inhibition of MLCK_sk: kinase MLCK_sk; for percent inhibition of MST2: kinase MST2; for percent inhibition of MST4: kinase MST4; for percent inhibition of PAK4: kinase PAK4; for percent inhibition of PDK1: kinase PDK1; for percent inhibition of PIM2: kinase PIM2; for percent inhibition of PKACa: kinase PKACa; for percent inhibition of PRKCB2: kinase PRKCB2; for percent inhibition of ROCKI: kinase ROCKI; for percent inhibition of SGK: kinase SGK; for percent inhibition of SRC: kinase SRC; for percent inhibition of TAO2: kinase TAO2; for percent inhibition of TIE2: kinase TIE2; for percent inhibition of TRKA: kinase TRKA; for percent inhibition of ZC1 (HGK): kinase ZC1 (HGK); for percent inhibition of p38: kinase p38
Experimental: The compounds were run using a commercially available kinase selectivity assay which is available from CarnaBio USA, Inc. 209 West Central St., Suite 307, Natick, Mass. 01760 USA. The compounds of Examples 3, 4, 5 and 22 were run in the assay at a concentration of 1 μM using an ATP concentration of 1 mM.

Chain of mutant G2019S LRRK2 (Q5S007 970-2527 G2019S limits assumed): as the sequence (Q5S007 970-2527 limits assumed) above, with G1050S counted along it

For `Cc1cc(Cc2nc3cnc4ccc(Cl)cc4c3n2[C@@H]2CCO[C@H](C)C2)no1` [Example 4, 8-Chloro-2-[(5-methyl-1,2-oxazol-3-yl)methyl]-1-[(2R,4R)-2-methyltetrahydro-2H-pyran-4-yl]-1H-imidazo[4,5-c]quinoline], the IC50 [1] was 4.9 nM, the IC50 [2] was 8.3 nM and the “percent inhibition of ABL” value [3] was −2.51%. The “percent inhibition of AKT” value [3] was 1.03%, the “percent inhibition of AURA” value [3] was 7.17% and the “percent inhibition of BTK” value [3] was 0.22%. For the same compound, the “percent inhibition of CDK2_CyclinA” value [3] was 8.08%, the “percent inhibition of CHK1” value [3] was 8.15% and the “percent inhibition of CHK2” value [3] was 2.72%. The “percent inhibition of CKIIa′” value [3] was 4.36%, the “percent inhibition of CKIa” value [3] was 18.22% and the “percent inhibition of CaMKIIa” value [3] was 7.62%. The “percent inhibition of EGFR” value [3] was 3.07%, the “percent inhibition of ERK2” value [3] was 4.54% and the “percent inhibition of EphA2” value [3] was 0.85%. For the same compound, the “percent inhibition of FGFR1” value [3] was 20.35%, the “percent inhibition of GSK3b” value [3] was 4.45% and the “percent inhibition of HGFR” value [3] was −5.99%. The “percent inhibition of IRAK4” value [3] was 3.88%, the “percent inhibition of IRK” value [3] was 2.83% and the “percent inhibition of JAK3” value [3] was −1.51%. For the same compound, the “percent inhibition of KDR (VEGF)” value [3] was 14.24%, the “percent inhibition of LCK” value [3] was 15.63% and the “percent inhibition of MARK1” value [3] was 1.48%. For the same compound, the “percent inhibition of MK2” value [3] was 3.04%, the “percent inhibition of MLCK_sk” value [3] was 3.07% and the “percent inhibition of MST2” value [3] was 16.25%. For the same compound, the “percent inhibition of MST4” value [3] was 1.29%, the “percent inhibition of PAK4” value [3] was 3.85% and the “percent inhibition of PDK1” value [3] was 4.87%. The “percent inhibition of PIM2” value [3] was −0.54%, the “percent inhibition of PKACa” value [3] was −0.89% and the “percent inhibition of PRKCB2” value [3] was 4.71%. The “percent inhibition of ROCKI” value [3] was 1.89%, the “percent inhibition of SGK” value [3] was 1.58% and the “percent inhibition of SRC” value [3] was 4.66%. For the same compound, the “percent inhibition of TAO2” value [3] was 0.82%, the “percent inhibition of TIE2” value [3] was 4.72% and the “percent inhibition of TRKA” value [3] was 11.84%. For the same compound, the “percent inhibition of ZC1 (HGK)” value [3] was −3.58% and the “percent inhibition of p38” value [3] was 9.62%.
`Cc1nc(Cc2nc3cnc4ccc(Cl)cc4c3n2[C@@H]2CCO[C@H](C)C2)no1` [Example 5, 8-Chloro-2-[(5-methyl-1,2,4-oxadiazol-3-yl)methyl]-1-[(2R,4R)-2-methyltetrahydro-2H-pyran-4-yl]-1H-imidazo[4,5-c]quinoline] was tested, and the IC50 [1] was 2.7 nM, the IC50 [2] was 4.6 nM and the “percent inhibition of ABL” value [3] was 1.3%. The “percent inhibition of AKT” value [3] was −3.11%, the “percent inhibition of AURA” value [3] was −0.59% and the “percent inhibition of BTK” value [3] was −1.9%. The “percent inhibition of CDK2_CyclinA” value [3] was 3.76%, the “percent inhibition of CHK1” value [3] was 4.68% and the “percent inhibition of CHK2” value [3] was 2.05%. For the same compound, the “percent inhibition of CKIIa′” value [3] was 5.19%, the “percent inhibition of CKIa” value [3] was 8.85% and the “percent inhibition of CaMKIIa” value [3] was 1.1%. For the same compound, the “percent inhibition of EGFR” value [3] was −0.51%, the “percent inhibition of ERK2” value [3] was 2.62% and the “percent inhibition of EphA2” value [3] was 0.13%. The “percent inhibition of FGFR1” value [3] was 12.6%, the “percent inhibition of GSK3b” value [3] was 3.4% and the “percent inhibition of HGFR” value [3] was −7.71%. The “percent inhibition of IRAK4” value [3] was 1.85%, the “percent inhibition of IRK” value [3] was 1.53% and the “percent inhibition of JAK3” value [3] was −0.03%. The “percent inhibition of KDR (VEGF)” value [3] was 15.08%, the “percent inhibition of LCK” value [3] was 17.19% and the “percent inhibition of MARK1” value [3] was 3.46%. For the same compound, the “percent inhibition of MK2” value [3] was −3.62%, the “percent inhibition of MLCK_sk” value [3] was 3.8% and the “percent inhibition of MST2” value [3] was 14.89%. For the same compound, the “percent inhibition of MST4” value [3] was 8.04%, the “percent inhibition of PAK4” value [3] was −0.05% and the “percent inhibition of PDK1” value [3] was 0.39%. The “percent inhibition of PIM2” value [3] was −3.78%, the “percent inhibition of PKACa” value [3] was −8.79% and the “percent inhibition of PRKCB2” value [3] was 9.78%. For the same compound, the “percent inhibition of ROCKI” value [3] was 0.07%, the “percent inhibition of SGK” value [3] was −0.06% and the “percent inhibition of SRC” value [3] was 2.47%. For the same compound, the “percent inhibition of TAO2” value [3] was 0.55%, the “percent inhibition of TIE2” value [3] was 2.53% and the “percent inhibition of TRKA” value [3] was 12.31%. The “percent inhibition of ZC1 (HGK)” value [3] was −0.79% and the “percent inhibition of p38” value [3] was 5.64%.
`Cc1cn(Cc2nc3cnc4ccc(Cl)cc4c3n2[C@@H]2CCO[C@H](C)C2)nn1` [Example 11, 8-Chloro-1-[(2R,4R)-2-methyltetrahydro-2H-pyran-4-yl]-2-[(4-methyl-1H-1,2,3-triazol-1-yl)methyl]-1H-imidazo[4,5-c]quinoline] was tested, and the IC50 [1] was 2.6 nM, the IC50 [2] was 3.4 nM and the “percent inhibition of ABL” value [3] was 5.06%. For the same compound, the “percent inhibition of AKT” value [3] was 2.25%, the “percent inhibition of AURA” value [3] was 9.46% and the “percent inhibition of BTK” value [3] was 1.63%. For the same compound, the “percent inhibition of CDK2_CyclinA” value [3] was 10.91%, the “percent inhibition of CHK1” value [3] was 9.08% and the “percent inhibition of CHK2” value [3] was 4.45%. The “percent inhibition of CKIIa′” value [3] was 3.12%, the “percent inhibition of CKIa” value [3] was 10.68% and the “percent inhibition of CaMKIIa” value [3] was 3.76%. For the same compound, the “percent inhibition of EGFR” value [3] was 2.76%, the “percent inhibition of ERK2” value [3] was 4.69% and the “percent inhibition of EphA2” value [3] was 0.7%. For the same compound, the “percent inhibition of FGFR1” value [3] was 21.95%, the “percent inhibition of GSK3b” value [3] was 3.91% and the “percent inhibition of HGFR” value [3] was −3.76%. The “percent inhibition of IRAK4” value [3] was 4.95%, the “percent inhibition of IRK” value [3] was 0.67% and the “percent inhibition of JAK3” value [3] was −0.46%. The “percent inhibition of KDR (VEGF)” value [3] was 29%, the “percent inhibition of LCK” value [3] was 9.31% and the “percent inhibition of MARK1” value [3] was 1.52%. For the same compound, the “percent inhibition of MK2” value [3] was −1.14%, the “percent inhibition of MLCK_sk” value [3] was 4.74% and the “percent inhibition of MST2” value [3] was 23.23%. For the same compound, the “percent inhibition of MST4” value [3] was 10.29%, the “percent inhibition of PAK4” value [3] was 4.23% and the “percent inhibition of PDK1” value [3] was 8.16%. For the same compound, the “percent inhibition of PIM2” value [3] was 4.47%, the “percent inhibition of PKACa” value [3] was 5.23% and the “percent inhibition of PRKCB2” value [3] was −0.76%. The “percent inhibition of ROCKI” value [3] was 6.94%, the “percent inhibition of SGK” value [3] was 4.89% and the “percent inhibition of SRC” value [3] was 1.86%. For the same compound, the “percent inhibition of TAO2” value [3] was 5.98%, the “percent inhibition of TIE2” value [3] was 5.85% and the “percent inhibition of TRKA” value [3] was 13.01%. The “percent inhibition of ZC1 (HGK)” value [3] was 2.87% and the “percent inhibition of p38” value [3] was 7.19%.
